What was measured:
Details in all cases: incubation time: 72 h
[1] = system: DU-4475; assay: normalised viability (% of control), CellTiter-Blue; higher = more viable cells (about 100 = DMSO control)
Summary of the method: (§1)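 Each entry is normalised viability at a single listed concentration within a series. It comes from breast cancer cell lines incubated 72 h with compound in 384-well plates, then measured with CellTiter-Blue fluorescence at 560/590 nm. Every plate was normalised between vehicle (100) and a positive kill control (0).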

[2] = system: HCC1937; assay: as above
Summary of the method: as §1

[3] = system: MDA-MB-436; assay: as above
Summary of the method: as §1

[4] = system: CAL-85-1; assay: as above
Summary of the method: as §1

[5] = system: BT-549; assay: as above
Summary of the method: as §1

[6] = system: BT-474; assay: as above
Summary of the method: as §1

[7] = system: HCC1143; assay: as above
Summary of the method: as §1

[8] = system: CAL-148; assay: as above
Summary of the method: as §1

[9] = system: HCC1599; assay: as above
Summary of the method: as §1

[10] = system: MDA-MB-231; assay: as above
Summary of the method: as §1

[11] = system: Hs578T; assay: as above
Summary of the method: as §1

[12] = system: MDA-MB-453; assay: as above
Summary of the method: as §1

[13] = system: CAL-120; assay: as above
Summary of the method: as §1

[14] = system: MDA-MB-468; assay: as above
Summary of the method: as §1

[15] = system: SK-BR-3; assay: as above
Summary of the method: as §1

[16] = system: MFM-223; assay: as above
Summary of the method: as §1

[17] = system: HDQ-P1; assay: as above
Summary of the method: as §1

[18] = system: CAL-51; assay: as above
Summary of the method: as §1

[19] = system: BT-474; assay: drug sensitivity score (DSS), CellTiter-Blue viability (DSS (AUC-based score)); higher = stronger viability inhibition; extreme values may be limits of the assay
Summary of the method: (§2)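 Into 384-well plates carrying compound in a 5- or 9-concentration series went 20 µl of breast cancer cell suspension, followed by 72 h of incubation. Adding 2.5 µl CellTiter-Blue per well and incubating 2 h at 37 °C preceded fluorescence measurement at 560/590 nm. After normalisation of each plate to 0.1 % DMSO and a positive kill control, dose-response curves were fitted and the area beneath them taken as the drug sensitivity score.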

[20] = system: MDA-MB-231; assay: as above
Summary of the method: as §2

[21] = system: MDA-MB-468; assay: as above
Summary of the method: as §2

[22] = system: SK-BR-3; assay: as above
Summary of the method: as §2

O=C1CCC(N2C(=O)c3ccccc3C2=O)C(=O)N1 (stereo unspecified) [Thalidomide]
normalised viability [%]
Details	3 nM	10 nM	30 nM	100 nM	1000 nM	10000 nM
[1]	98.9	–	99.7	109	–	–
[2]	–	85.8	–	–	73.4	77.9
[3]	–	106	–	–	87	96.8
[4]	102	–	98.8	101	–	–
[5]	–	76.7	–	–	91.5	81.7
[6]	–	110	–	–	110	108
[7]	–	109	–	–	102	107
[8]	115	–	116	116	–	–
[9]	–	101	–	–	86	102
[10]	–	97.2	–	–	109	124
[11]	–	97.8	–	–	108	106
[12]	99	–	99.3	89.7	–	–
[13]	–	111	–	–	106	96.8
[14]	–	97.9	–	–	101	105
[15]	–	97.9	–	–	112	109
[16]	–	103	–	–	96.6	91.4
[17]	107	–	101	103	–	–
[18]	90.8	–	90.7	91.3	–	–

Details	drug sensitivity score
[19]	0
[20]	0
[21]	0
[22]	0

CC1(C)NC(=O)N(c2ccc([N+](=O)[O-])c(C(F)(F)F)c2)C1=O [Nilutamide]
normalised viability [%]
Details	3 nM	10 nM	30 nM	100 nM	1000 nM	10000 nM
[1]	88	–	108	90.7	–	–
[2]	–	105	–	–	87.3	94.7
[3]	–	113	–	–	110	102
[4]	98	–	88.9	100	–	–
[5]	–	97.2	–	–	85.5	97.2
[6]	–	122	–	–	128	110
[7]	–	89.3	–	–	113	94
[8]	95.5	–	100	97	–	–
[9]	–	97.9	–	–	82.5	113
[10]	–	102	–	–	92.2	109
[11]	–	108	–	–	139	119
[12]	120	–	87.5	109	–	–
[13]	–	95.6	–	–	90.1	116
[14]	–	115	–	–	103	103
[15]	–	100	–	–	104	132
[16]	–	108	–	–	98.4	85.8
[17]	124	–	120	112	–	–
[18]	101	–	96.1	94.6	–	–

Details	drug sensitivity score
[19]	0
[20]	0
[21]	0
[22]	0

Cc1ccc(-n2nc(C(C)(C)C)cc2NC(=O)Nc2ccc(OCCN3CCOCC3)c3ccccc23)cc1 [Doramapimod]
normalised viability [%]
Details	3 nM	10 nM	30 nM	100 nM	1000 nM	10000 nM
[1]	123	–	89.1	97.1	–	–
[2]	–	45.3	–	–	90.2	97.9
[3]	–	84.4	–	–	33.9	71.5
[4]	94.4	–	85.4	80.4	–	–
[5]	–	98.1	–	–	104	84.7
[6]	–	101	–	–	101	96.9
[7]	–	94.2	–	–	92.1	90.3
[8]	90	–	90.9	87.5	–	–
[9]	–	93.8	–	–	110	91.2
[10]	–	99.2	–	–	99	109
[11]	–	111	–	–	120	113
[12]	109	–	105	106	–	–
[13]	–	95.4	–	–	81.2	95.8
[14]	–	96	–	–	115	119
[15]	–	91.1	–	–	98.2	97.1
[16]	–	103	–	–	92.8	81.5
[17]	88.8	–	78	82.4	–	–
[18]	116	–	105	95.7	–	–

Details	drug sensitivity score
[19]	0
[20]	0
[21]	0
[22]	0

O=P1(NCCCl)OCCCN1CCCl (stereo unspecified) [Ifosfamide]
normalised viability [%]
Details	3 nM	10 nM	30 nM	100 nM	1000 nM	10000 nM
[1]	88.5	–	101	81.9	–	–
[2]	–	84	–	–	74.6	97.6
[3]	–	96.6	–	–	109	102
[4]	88.3	–	89.1	95.7	–	–
[5]	–	79.4	–	–	90.8	96.7
[6]	–	114	–	–	112	120
[7]	–	80.1	–	–	82.4	91.1
[8]	89.8	–	92	93	–	–
[9]	–	100	–	–	93.9	89.7
[10]	–	101	–	–	97.3	109
[11]	–	102	–	–	102	115
[12]	132	–	87.3	106	–	–
[13]	–	88.7	–	–	99.3	85.2
[14]	–	110	–	–	120	103
[15]	–	109	–	–	117	97.8
[16]	–	87.1	–	–	91.6	97.3
[17]	94	–	93.9	103	–	–
[18]	114	–	110	107	–	–

Details	drug sensitivity score
[19]	0
[20]	0
[21]	0
[22]	0

CCN(CCCOc1ccc2c(Nc3cc(CC(=O)Nc4cccc(F)c4)[nH]n3)ncnc2c1)CCOP(=O)(O)O [Barasertib]
normalised viability [%]
Details	0.3 nM	1 nM	3 nM	10 nM	100 nM	1000 nM
[1]	112	–	105	91.6	–	–
[2]	–	69	–	–	44.3	52.8
[3]	–	126	–	–	56.5	88.1
[4]	102	–	89.8	93.2	–	–
[5]	–	93.5	–	–	69.1	69.8
[6]	–	108	–	–	95.1	92.1
[7]	–	124	–	–	78.4	85.9
[8]	98.4	–	105	39.7	–	–
[9]	–	79.4	–	–	81.6	94.2
[10]	–	110	–	–	75.3	81.1
[11]	–	106	–	–	62.6	70.7
[12]	104	–	92.8	65.6	–	–
[13]	–	111	–	–	61.9	51.7
[14]	–	115	–	–	34.4	26.5
[15]	–	107	–	–	82.7	91.9
[16]	–	103	–	–	95.7	85.8
[17]	103	–	106	109	–	–
[18]	106	–	103	83.6	–	–

Details	drug sensitivity score
[19]	0
[20]	3.7
[21]	12.1
[22]	0

N.N.[Cl][Pt][Cl] [Cisplatin]
normalised viability [%]
Details	3 nM	10 nM	30 nM	100 nM	1000 nM	10000 nM
[1]	105	–	116	88.8	–	–
[2]	–	87	–	–	106	105
[3]	–	102	–	–	87.1	94.8
[4]	96.2	–	87.7	95.7	–	–
[5]	–	87.5	–	–	87.6	88.8
[6]	–	115	–	–	122	135
[7]	–	88.2	–	–	89.3	89.2
[8]	92.1	–	102	103	–	–
[9]	–	100	–	–	93.4	86.7
[10]	–	99.2	–	–	101	104
[11]	–	100	–	–	139	122
[12]	124	–	117	110	–	–
[13]	–	90.3	–	–	93.3	102
[14]	–	101	–	–	101	106
[15]	–	99.1	–	–	105	111
[16]	–	88.5	–	–	91	99.1
[17]	116	–	118	111	–	–
[18]	107	–	97.9	109	–	–

Details	drug sensitivity score
[19]	0
[20]	0
[21]	0
[22]	0

CN(C)/N=N/c1[nH]cnc1C(N)=O [Dacarbazine]
normalised viability [%]
Details	3 nM	10 nM	30 nM	100 nM	1000 nM	10000 nM
[1]	90.4	–	89.6	92.4	–	–
[2]	–	98	–	–	87.3	98.5
[3]	–	100	–	–	78.7	93.8
[4]	95.8	–	84.6	90.5	–	–
[5]	–	103	–	–	89.2	106
[6]	–	126	–	–	122	119
[7]	–	76.3	–	–	106	84.2
[8]	84.4	–	96	99.2	–	–
[9]	–	93.8	–	–	97.1	86.7
[10]	–	101	–	–	89.3	99
[11]	–	119	–	–	113	94.8
[12]	103	–	102	102	–	–
[13]	–	88.2	–	–	83.8	79.5
[14]	–	104	–	–	104	88.8
[15]	–	104	–	–	95.3	100
[16]	–	90.4	–	–	89.3	104
[17]	107	–	100	110	–	–
[18]	92.7	–	88.9	88.9	–	–

Details	drug sensitivity score
[19]	0
[20]	0
[21]	0
[22]	0

Reference: the supplement of paper PMC4862054
